One data set deals with Folsomia candida. The settings on record: chronic/long-term; duration: 28 days; mortality.
For another data set, the system named is Neomysis kadiakensis. The conditions noted are these: for LC50: acute, mortality.
For another data set, the system named is Oncorhynchus mykiss. The settings on record: for LC50: acute, duration: 96 hours, mortality.
The test system of another data set is Tagia sp. The conditions noted are these: for NOEC: chronic/long-term, duration: 56 days, reproduction.
The next data set deals with Anas platyrhynchos. The settings on record: acute; oral; unspecified; mortality.
The next data set deals with Apis mellifera. The settings on record: acute, mortality.
The next data set concerns Bibionidae. The settings on record: chronic/long-term; duration: 22 days; other.
For another data set, the system named is Oryctolagus sp. The conditions noted are these: developmental; development.

Converted amounts (≈) assume the structure as drawn.

Broadly, the NOAEL is the highest tested level that showed no adverse finding. In turn, `CS(=O)(=O)c1cc(C(F)(F)F)ccc1C(=O)C(C#N)C(=O)C1CC1` (configuration not stated) registered a no-observed-adverse-effect level (NOAEL) with Colinus virginianus (chronic, reproduction) of 25 mg/kg-day. For the same compound, the NOEC with Folsomia candida is greater than 100 mg/kg; with Tagia sp., 9 mg/kg. For the same compound, the LC50 in the data set on Neomysis kadiakensis (duration: 48 hours) is 24 µg/mL (≈ 66.8 µM); in the data set with Neomysis kadiakensis (duration: 96 hours), 3.7 µg/mL (≈ 10.3 µM); in the data set with Oncorhynchus mykiss it was greater than 15 µg/mL.
Compound `CS(=O)(=O)c1cc(C(F)(F)F)ccc1C(=O)O` [2-Methylsulfonyl-4-trifluoromethylbenzoic acid] yielded a no-observed-adverse-effect level (NOAEL) with Rattus norvegicus (subchronic, duration: 90 days, M) of 769 mg/kg-day.
Take `CS(=O)(=O)c1cc(C(F)(F)F)ccc1C(=O)c1cnoc1C1CC1` [Isoxaflutole]: the LD50 in the data set with Anas platyrhynchos is greater than 2150 mg/kg-day; in the data set on Apis mellifera (dermal), greater than 100 µg/piece; in the data set on Apis mellifera (oral, unspecified), greater than 109 µg/piece; in the data set on Colinus virginianus (acute, oral, mortality) it was greater than 2150 mg/kg-day; with Rattus norvegicus (acute, mortality), greater than 5000 mg/kg. The NOEC is 0.1 mg/L in the data set with Bibionidae; 0.001 mg/L in the data set with Neomysis kadiakensis (chronic/long-term, other); 0.08 mg/L in the data set with Oncorhynchus mykiss (chronic/long-term, duration: 28 days, growth); 8.9 mg/kg in the data set on Tagia sp.. For the same compound, the LC50 in the data set with Neomysis kadiakensis (duration: 48 hours) was greater than 0.077 µg/mL; with Oncorhynchus mykiss it was greater than 1.7 µg/mL; with Tagia sp. (acute, duration: 14 days, mortality) it was greater than 500 mg/kg. For the same compound, the NOAEL in the data set with Oryctolagus sp. amounted to 5 mg/kg-day; in the data set on Rattus norvegicus (chronic, duration: 2 years, histopathology: nonneoplastic), 2 mg/kg-day; in the data set on Rattus norvegicus (reproduction developmental, organ weight) it was 2 mg/kg-day.
